Entries after “also recorded” stand apart in the source; their conditions may differ.
How the values were obtained:
PKM2 tetramer / monomer = biological target: T1, PKM2 tetramer / monomer (Mus musculus, UniProt P52480); assay: Western blot of PKM2 tetramer and monomer in LPS-treated cells; type: cell-based
T1 construct: endogenous in cells; host or cells: BV-2 cells
Source text: ImageJ was used for densitometric analysis.

[1] = Respiratory rate determination; type: in vivo, mice; settings: CIAC001 20 mg/kg i.p.; THC 10 mg/kg i.p.
Method: Mice were intraperitoneally injected with 20 mg/kg CIAC001 or 10 mg/kg THC once daily. After 1 h, the mice were anesthetized with isoflurane by a small animal anesthesia machine (R500IE, RWD Life Science Co) on day 2 and day 5. The respiratory rate of mice was recorded three times within 20 s. The weights of mice were recorded every day.

[2] = tested on: LPS-induced proinflammatory factor nitric oxide (NO) in immunocompetent BV-2 cells; assay: NO assay: inhibition of LPS-induced NO overproduction in BV-2 cells; type: cell-based; settings: Mus musculus; BV-2 cells, LPS 200 ng/mL, 24 h; read-out: Antineuroinflammatory activity (IC50 inhibiting LPS-induced NO)
Method: BV-2 cells were seeded at a density of 5×10^4 cells per milliliter in 96-well plates. After 24 h incubation, the media was removed and changed to DMEM without FBS and penicillin-streptomycin. LPS (200 ng/mL) and different concentrations of compounds were added. After 24 h treatment, 100 μL of media was transferred to flat black 96-well micro fluor plates, and then, 10 μL of 0.05 mg/mL 2,3-diaminonaphthalene was added and incubated in the dark for 15 min. 5 μL of NaOH (3 M) was subsequently added to each well to quench the reaction. NO inhibition ratio was analyzed by a SYNERGY H1 Microplate Reader (BioTek Instruments, Carlsbad, CA, USA) with excitation at 360 nm and emission at 430 nm. The fluorescence value of the LPS-treated group was set as 100%.

LPS-activated BV-2 cells = assay: Cell morphology determination; type: cell-based; settings: 10 μM, LPS 200 ng/ml, 24 h
Method: BV-2 cells were seeded at a density of 2.5×10^5 cells per milliliter in 6-well plates and incubated for 12 h. Cells were incubated with CIAC001 (10 μM) in the absence or presence of LPS (200 ng/ml) for 24 h. The images of BV-2 cells were taken with an inverted microscope (Ts2-FL, Nikon Corporation, Tokyo, Japan) and analyzed by ImageJ. Statistic data are counted in at least three hundred cells.

morphine-treated mice = assay: Morphine-induced behavioral sensitization; type: in vivo; settings: 0.2 mg/kg i.p.
Method: Mice were placed into the test chamber (40×40×40 cm^3) for 60 min to habituate the chamber for three consecutive days. […] Locomotor activity was recorded daily for 60 min after the administration of drugs. Next, all the mice were subjected to a 7-day withdrawal period (days 8-14). Subsequently, mice were given morphine (5 mg/kg, i.p.), and locomotor activity was recorded to determine behavioral sensitization.

[3] = tested on: 3×Tg Alzheimer's disease mice; assay: Learning and memory tests in Alzheimer's disease model mice (Morris water maze, Y-maze); type: in vivo; settings: i.p., 45 days
Source text: For Alzheimer's disease behavioral experiments (Morris water maze, open field experiment, novel object recognition, Y-maze, and elevated cross maze), triple transgenic mouse models (B6:129-Psen1tm1Mpm Tg (APPswe, tauP301L) 1Lfa/J, 3×Tg) were purchased from the Jax Laboratory in the United States. The wild-type mice (C57BL/6J, WT) were purchased from Beijing Vital River Laboratory Animal Technology Co., Ltd. After 45 days of intraperitoneal injection of CIAC001, all mice were subjected to subsequent behavioral experiments. In order to minimize the use of mice, the mice are first tested for sufficient physical strength and normal mental states. Only one behavioral experiment is conducted per day based on the following schedule: day 1: open field test; day 2-3: novel object recognition; day 3: elevated plus maze; day 4: Y-maze; day 5-13: Morris water maze. […]
Place navigation training was performed from days 1 to 5. […] The time taken for the mouse to find the platform was recorded, representing the mouse's escape latency. […]
The spatial exploration test was conducted 24 hours and 72 hours after completion of place navigation training. The test conducted at 24 hours assessed short-term memory, while the test performed at 72 hours assessed long-term memory. […]

T1 sequence (P52480 whole entry): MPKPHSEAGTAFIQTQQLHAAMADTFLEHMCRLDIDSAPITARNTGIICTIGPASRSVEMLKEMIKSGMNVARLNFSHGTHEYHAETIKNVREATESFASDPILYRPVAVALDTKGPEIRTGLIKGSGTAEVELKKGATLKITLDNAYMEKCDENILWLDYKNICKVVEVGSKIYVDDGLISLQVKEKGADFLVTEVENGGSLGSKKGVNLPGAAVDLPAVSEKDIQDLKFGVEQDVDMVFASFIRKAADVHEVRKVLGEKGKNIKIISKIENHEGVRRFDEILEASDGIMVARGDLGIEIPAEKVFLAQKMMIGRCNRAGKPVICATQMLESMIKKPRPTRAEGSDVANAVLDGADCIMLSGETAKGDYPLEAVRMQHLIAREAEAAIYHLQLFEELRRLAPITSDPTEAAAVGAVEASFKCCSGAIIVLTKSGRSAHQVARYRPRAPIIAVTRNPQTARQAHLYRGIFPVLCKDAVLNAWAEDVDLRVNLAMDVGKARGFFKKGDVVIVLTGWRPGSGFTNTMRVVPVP

## C=C(C)[C@@H]1CCC(C)=C[C@H]1c1c(O)cc(C(C)n2nccn2)cc1O (stereo partly drawn) [CIAC001, (1′R,2′R)-4-(1-(2H-1,2,3-Triazol-2-yl)ethyl)-5′-methyl-2′-(prop-1-en-2-yl)-1′,2′,3′,4′-tetrahydro-[1,1′-biphenyl]-2,6-diol]
PKM2 tetramer / monomer
  LPS-induced decline of the PKM2 tetramer: reversed the LPS-induced decline of the PKM2 tetramer
  LPS-induced rise of the PKM2 monomer: inhibit the LPS-induced rise of the PKM2 monomer; also recorded: inhibited LPS-induced rise of the PKM2 monomer
[1]
  respiratory rate: did not affect the respiratory rate
[2]
  IC50: 2500 ± 700 nM
LPS-activated BV-2 cells
  LPS-induced morphological changes of microglia: considerably reversed
morphine-treated mice; day 15
  locomotor response to morphine challenge (expression of behavioral sensitization): decreased the locomotor response
morphine-treated mice; mice
  development of morphine-induced behavioral sensitization (induction period): significantly inhibited; also recorded: ameliorated
[3]
  learning and memory abilities of Alzheimer's disease mice: improves learning and memory abilities of Alzheimer's disease mice at a lower dose than cannabidiol

From US20260242320A1, “USE OF CANNABIDIOL DERIVATIVE IN PREPARATION OF MEDICAMENT” (priority 2023, published 2026)
